# Test results from US9353088B2, “Crystalline pharmaceutical and methods of preparation and use thereof” (SARcode Bioscience Inc., priority 2009, dated 2016).
# Like-named read-outs stand apart in the source and are kept apart here.
# Experiments:
# [1] = Single dose ocular and IV ADME with [14C]-compound, whole body autoradiography; format: in vivo, rats; settings: for fecal excretion of administered radioactivity: 0 to 168 hours postdose; for Concentration, Aqueous humor / Concentration, Conjunctiva (bulbar) / Concentration, Conjunctiva (palpebral) / Concentration, Cornea / Concentration, Iris-ciliary body / Concentration, Lens / Concentration, Optic Nerve / Concentration, Retina and Choroid (with RPE) / Concentration, Sclera / Concentration, Vitreous Humor: ocular dosing
# [2] = Respiratory function, single IV bolus, head-out plethysmograph; format: in vivo, rats; settings: any dose
# [3] = CNS effects, single bolus IV injection; format: in vivo, rats; settings: 10.0 mg/kg IV, 1 minute to 6 hours postdose, 2/6 animals
# Text: No effect on any other parameters was observed.
# [4] = Tear PK after single topical ocular instillation; settings: single topical ocular instillation, 0.1, 1.0 or 3.0%
# [5] = Single dose ocular and IV ADME with [14C]-compound; format: in vivo, dogs
# Text: No differences in results from male and female dogs were observed.
# LFA-1 = biological target: T1, LFA-1 (Homo sapiens, UniProt P05107+P20701); test: in vitro cell assays (cell attachment and SEB IL-2 release); format: cell-based
# T1 construct: LFA-1 levels in in vitro cell assays (cell attachment and SEB IL-2 release); endogenous in cells; host or cells: human T-cell lines (HuT 78 / Jurkat) and human PBMC
# T1 sequence (P20701 26-1170): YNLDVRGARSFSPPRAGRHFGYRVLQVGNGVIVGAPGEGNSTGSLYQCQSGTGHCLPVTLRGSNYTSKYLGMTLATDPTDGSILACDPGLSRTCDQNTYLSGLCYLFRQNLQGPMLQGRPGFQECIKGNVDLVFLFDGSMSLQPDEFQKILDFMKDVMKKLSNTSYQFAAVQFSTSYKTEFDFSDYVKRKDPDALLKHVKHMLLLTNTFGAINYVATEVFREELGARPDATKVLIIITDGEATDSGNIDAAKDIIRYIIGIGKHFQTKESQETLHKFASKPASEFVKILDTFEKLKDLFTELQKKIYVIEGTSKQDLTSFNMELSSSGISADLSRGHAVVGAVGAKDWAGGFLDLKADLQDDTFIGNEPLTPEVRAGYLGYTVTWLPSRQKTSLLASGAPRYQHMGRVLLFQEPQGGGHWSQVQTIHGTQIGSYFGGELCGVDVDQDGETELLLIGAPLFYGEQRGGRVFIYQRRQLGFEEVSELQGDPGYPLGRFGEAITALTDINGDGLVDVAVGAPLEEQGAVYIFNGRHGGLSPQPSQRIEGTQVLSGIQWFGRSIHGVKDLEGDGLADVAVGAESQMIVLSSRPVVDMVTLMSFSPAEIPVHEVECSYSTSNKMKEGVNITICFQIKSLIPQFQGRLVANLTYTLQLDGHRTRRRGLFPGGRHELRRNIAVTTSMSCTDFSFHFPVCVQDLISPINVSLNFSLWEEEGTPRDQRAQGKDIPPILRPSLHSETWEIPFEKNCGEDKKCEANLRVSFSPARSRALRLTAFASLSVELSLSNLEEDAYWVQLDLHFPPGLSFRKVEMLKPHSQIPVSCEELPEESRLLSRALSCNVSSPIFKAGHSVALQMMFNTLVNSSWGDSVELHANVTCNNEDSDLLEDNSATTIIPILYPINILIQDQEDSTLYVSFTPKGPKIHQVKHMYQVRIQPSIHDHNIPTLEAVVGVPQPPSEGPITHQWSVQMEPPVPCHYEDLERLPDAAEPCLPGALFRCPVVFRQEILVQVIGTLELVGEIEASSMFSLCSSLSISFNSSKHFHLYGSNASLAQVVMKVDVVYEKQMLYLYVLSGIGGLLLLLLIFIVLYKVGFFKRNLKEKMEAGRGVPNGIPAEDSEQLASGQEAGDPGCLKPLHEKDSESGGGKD
# T1 sequence (P05107 23-769): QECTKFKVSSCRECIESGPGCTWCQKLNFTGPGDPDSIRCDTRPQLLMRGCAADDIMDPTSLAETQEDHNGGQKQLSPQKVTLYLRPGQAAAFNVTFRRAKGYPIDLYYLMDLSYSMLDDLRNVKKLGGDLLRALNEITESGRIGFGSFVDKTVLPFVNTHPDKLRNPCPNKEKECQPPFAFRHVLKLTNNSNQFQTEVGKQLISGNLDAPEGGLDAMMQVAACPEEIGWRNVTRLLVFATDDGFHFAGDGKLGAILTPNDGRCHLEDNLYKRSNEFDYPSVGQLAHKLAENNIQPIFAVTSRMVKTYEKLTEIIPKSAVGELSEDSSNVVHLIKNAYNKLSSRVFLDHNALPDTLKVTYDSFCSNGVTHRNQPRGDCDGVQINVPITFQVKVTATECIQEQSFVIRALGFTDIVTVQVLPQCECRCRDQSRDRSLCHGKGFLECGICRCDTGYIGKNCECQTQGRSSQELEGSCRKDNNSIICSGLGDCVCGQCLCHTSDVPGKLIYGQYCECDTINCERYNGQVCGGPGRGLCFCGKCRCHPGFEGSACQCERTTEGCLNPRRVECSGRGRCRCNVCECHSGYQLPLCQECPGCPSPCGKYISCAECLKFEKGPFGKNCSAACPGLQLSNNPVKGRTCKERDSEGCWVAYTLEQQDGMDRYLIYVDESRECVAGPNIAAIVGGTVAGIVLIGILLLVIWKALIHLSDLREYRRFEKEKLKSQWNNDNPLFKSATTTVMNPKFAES
# [6] = 13-week ocular toxicity study with 4-week recovery; settings: 13-week ocular (3%)
# [7] = dog, in vivo
# [8] = Single dose ocular tolerance; settings: single dose ocular tolerance (10%)
# [9] = Cardiovascular effects in conscious telemetry-instrumented dogs, IV bolus; format: in vivo, dogs (beagles); settings: IV bolus injection
# [10] = rabbit, in vivo
# [11] = 13-week ocular toxicity study with 4-week recovery; settings: 13-week ocular (3%); remark: listed apart in the source
# [12] = 13-week IV toxicity study with 4-week recovery; format: in vivo, rats; settings: Day 1
# [13] = Plasma PK after single topical ocular instillation; settings: post-dose
# [14] = test system: attachment of Jurkat cells to ICAM-1; test: T-cell adhesion assay using Jurkat cells; format: cell-based, human; settings: versus positive control
# Description: A reported LFA-1 antagonist was used as the positive control.
# Jurkat cells were labeled with an 8 μM solution of BCECF-AM (2′,7′-bis-(2-carboxyethyl)-5-(and -6)-carboxyfluorescein) in growth media at room temperature for 15 minutes. […] Non-adherent cells were removed by washing and centrifugation at 100 g for 1 minute. Adherent cells were determined as adherent fluorescent units on a fluorescent plate reader.
# [15] = 0.5 hour, topical ocular 1 mg/eye
# [16] = 0.5 hour, topical ocular 1 mg/eye, above upper limit of quantification
# [17] = 8 hours postdose, topical ocular 1 mg/eye
# [18] = 24 hours postdose, topical ocular 1 mg/eye
smiles,measurement,setting,value
CS(=O)(=O)c1cccc(C[C@H](NC(=O)c2c(Cl)cc3c(c2Cl)CCN(C(=O)c2ccc4ccoc4c2)C3)C(=O)O)c1 [Compound of Formula I],"radioactivity concentration, eye",[1]; [15],18100 ng equivalents [^14C]-compound of Formula I/g
same,"radioactivity concentration, kidney",[1]; [15],151 ng equivalents [^14C]-compound of Formula I/g
same,"radioactivity concentration, liver",[1]; [15],272 ng equivalents compound of Formula I/g
same,"radioactivity concentration, uveal tract",[1]; [15],9330 ng equivalents [^14C]-compound of Formula I/g
same,"radioactivity concentration, esophageal contents","[1]; 0.5 hour, topical ocular 1 mg/eye, male Sprague Dawley, above upper limit of quantification",399000 ng equivalents [^14C]-compound of Formula I/g
same,"radioactivity concentration, nasal turbinates",[1]; [16],352000 ng equivalents [^14C]-compound of Formula I/g
same,"radioactivity concentration, small intestinal contents",[1]; [16],349000 ng equivalents [^14C]-compound of Formula I/g
same,"radioactivity concentration, cecum contents",[1]; [17],57600 ng equivalents [^14C]-compound of Formula I/g
same,"radioactivity concentration, large intestinal contents",[1]; [17],133000 ng equivalents [^14C]-compound of Formula I/g
same,"radioactivity concentration, uveal tract","[1]; 12 hours postdose, topical ocular 1 mg/eye",610 ng equivalents [^14C]-compound of Formula I/g
same,"radioactivity concentration, cecum contents",[1]; [18],5870 ng equivalents [^14C]-compound of Formula I/g
same,"radioactivity concentration, large intestinal contents",[1]; [18],18000 ng equivalents [^14C]-compound of Formula I/g
same,fecal excretion of administered radioactivity,[1]; IV administration 10 mg/kg,~95%
same,"decline of radioactivity concentration, esophageal contents",[1]; at 2 hours postdose,~100 fold
same,"decline of radioactivity concentration, esophagus",[1]; at 2 hours postdose,approximately 50 fold
same,levels in conjunctiva/cornea,"[1]; for 16 hrs, rat",> 100 nM
same,fecal excretion of administered radioactivity,[1]; ocular administration 1 mg/eye,approximately 60%
same,"Concentration, Aqueous humor",[1]; 0.5 hour after administration,1770 ng Equivalents [^14C]-compound of Formula I/g tissue
same,"Concentration, Conjunctiva (bulbar)",[1]; 0.5 hour after administration,31500 ng Equivalents [^14C]-compound of Formula I/g tissue
same,"Concentration, Conjunctiva (palpebral)",[1]; 0.5 hour after administration,26300 ng Equivalents [^14C]-compound of Formula I/g tissue
same,"Concentration, Cornea",[1]; 0.5 hour after administration,17150 ng Equivalents [^14C]-compound of Formula I/g tissue
same,"Concentration, Iris-ciliary body",[1]; 0.5 hour after administration,17550 ng Equivalents [^14C]-compound of Formula I/g tissue
same,"Concentration, Lens",[1]; 0.5 hour after administration,38.8 ng Equivalents [^14C]-compound of Formula I/g tissue
same,"Concentration, Optic Nerve",[1]; 0.5 hour after administration,796 ng Equivalents [^14C]-compound of Formula I/g tissue
same,"Concentration, Retina and Choroid (with RPE)",[1]; 0.5 hour after administration,510 ng Equivalents [^14C]-compound of Formula I/g tissue
same,"Concentration, Sclera",[1]; 0.5 hour after administration,2750 ng Equivalents [^14C]-compound of Formula I/g tissue
same,"Concentration, Vitreous Humor",[1]; 0.5 hour after administration,1330 ng Equivalents [^14C]-compound of Formula I/g tissue
same,"Concentration, Aqueous humor",[1]; 4.0 hours after administration,116 ng Equivalents [^14C]-compound of Formula I/g tissue
same,"Concentration, Conjunctiva (bulbar)",[1]; 4.0 hours after administration,4480 ng Equivalents [^14C]-compound of Formula I/g tissue
same,"Concentration, Conjunctiva (palpebral)",[1]; 4.0 hours after administration,21830 ng Equivalents [^14C]-compound of Formula I/g tissue
same,"Concentration, Cornea",[1]; 4.0 hours after administration,1346 ng Equivalents [^14C]-compound of Formula I/g tissue
same,"Concentration, Iris-ciliary body",[1]; 4.0 hours after administration,500 ng Equivalents [^14C]-compound of Formula I/g tissue
same,"Concentration, Lens",[1]; 4.0 hours after administration,9.69 ng Equivalents [^14C]-compound of Formula I/g tissue
same,"Concentration, Optic Nerve",[1]; 4.0 hours after administration,0 ng Equivalents [^14C]-compound of Formula I/g tissue
same,"Concentration, Retina and Choroid (with RPE)",[1]; 4.0 hours after administration,46.7 ng Equivalents [^14C]-compound of Formula I/g tissue
same,"Concentration, Sclera",[1]; 4.0 hours after administration,387 ng Equivalents [^14C]-compound of Formula I/g tissue
same,"Concentration, Vitreous Humor",[1]; 4.0 hours after administration,183 ng Equivalents [^14C]-compound of Formula I/g tissue
same,Urinary excretion of administered radioactivity,[1]; ocular or IV,up to 2%
same,melanin binding,[1]; tissue distribution in pigmented vs albino rats,did not preferentially bind to melanin
same,"metabolites in pooled plasma, urine and fecal homogenates",[1]; up to 168 hrs after topical ocular or IV dose,no metabolites were isolated
same,"respiratory function (tidal volume, respiration rate, minute volume)",[2],No adverse changes in respiratory function or adverse effects
same,CNS observations,[3],Transient miosis
same,time to maximal mean tear concentration,[4],≤ 30 min
same,levels in conjunctiva/cornea,"[5]; for 16 hrs, dog",greater than 1 micromolar
same,"metabolites in pooled plasma, urine and fecal homogenate",[5]; up to 168 hrs post-dose,no metabolites detected
same,IC50,LFA-1,2 nM
same,NOAEL,[6],1.05 mg/eye/3× per day
same,level in vitreous fluid,[7],not detected
same,NOAEL,[8],3.5 mg/eye/3× per day
same,effects on electrocardiography or hemodynamic parameters,[9],No effects
same,level in vitreous fluid,[10],not detected
same,NOAEL,[11],1.05 mg/eye/3× per day
same,Cmax,[12]; daily IV bolus 10 mg/kg,1045.3 ng/mL
same,AUC0-n,[12]; daily IV bolus 30 mg/kg,2345.5 ng·h/mL
same,Cmax,[12]; daily IV bolus 30 mg/kg,5117.3 ng/mL
same,time of maximum plasma concentration,[13],about 0.25 hrs
same,"dose response curve and IC50, Jurkat cell attachment",[14],comparable to that of the known direct competitive LFA-1 antagonist
